The results in this text go back to patent publication US20180371076A1, “MATERNAL TH17 CELLS AND PSYCHIATRIC DISORDERS” (New York University, priority 2017, published 2018).

“Also recorded” adds a separate entry of the source.

The subject of one series is TNF-α. In words: TNF-α ELISA of maternal serum. Particulars: poly(I:C) at E12.5, 3 h, vs PBS. In kind it is in vivo, mouse. As for the experimental part: (§1) Cell preparation, Flow cytometry, ELISA Embryos at each implantation site were dissected in ice-cold HBSS containing Ca2+ and Mg2+ (Gibco). Myometrium was first peeled off of the decidua and embryos were discarded. Dissected decidual and placental tissues were then minced and enzymatically dissociated in HBSS containing 0.28 Wunsch units (WU)/mL Liberase (Roche) and 30 μg/mL DNase I (Roche) for 30 min at 37° C. with intermittent mixing. Digested tissues were washed in PBS containing 5 mM EDTA and 5% fetal bovine serum and then incubated again in the same buffer for 15 min at 37° C. prior to filtration through a cell strainer. […] Intracellular cytokine staining was performed according to the manufacturer's protocol (Cytofix/Cytoperm buffer set from BD with Pacific Blue-conjugated CD4, FITC or PerCP-Cy5.5-conjugated CD8, APC4 Cy7-conjugated TCR-β, PE-Cy7-conjugated anti-IL-17a, PE-conjugated anti-IFN-γ, PECy7-conjugated anti-CD25 and PE-conjugated Foxp3 (eBioscience). LSR II (BD Biosciences) and FlowJo software (Tree Star) were used for flow cytometry and analysis. Dead cells were excluded using the Live/Dead fixable aqua dead cell stain kit (Invitrogen). For ELISA with sera and placenta/decidua extract, IL-6 (Ebioscience), IL-17a, TNF-α, IL-1β, IFN-β (Biolgened), and IL-10 (BD) were measured according to the manufacturer's protocol.
Background: ELISA stands for enzyme-linked immunosorbent assay.

Another series relates to IL-17a. As to the kind of experiment: IL-17a secretion by ex vivo cultured mononuclear cells (PMA/ionomycin). The series is classed as cell-based, mouse. Particulars: vs PBS. As for the experimental part:
(§2) Cell preparation, Flow cytometry, ELISA. Embryos at each implantation site were dissected in ice-cold HBSS containing Ca^2+ and Mg^2+. Myometrium was first peeled off of the decidua and embryos were discarded. Dissected decidual and placental tissues were then minced and enzymatically dissociated in HBSS containing 0.28 Wunsch units (WU)/mL Liberase (Roche) and 30 μg/ml DNase I (Roche) for 30 min at 37° C. with intermittent mixing. Digested tissues were washed in PBS containing 5 mM EDTA and 5% fetal bovine serum and then incubated again in the same buffer for 15 min at 37° C. prior to filtration through a cell strainer. After separation on a discontinuous 40% & 80% Percoll gradient, the mononuclear cell fraction was treated with ACK lysis buffer (Lonza). Mononuclear cells (1×10^6 cells/mL) were stimulated with phorbol 12-myristate 13-acetate (PMA, 50 ng/mL; Sigma), ionomycin (500 ng/mL; Sigma) in T cell media: RPMI 1640 (Invitrogen) supplemented with 10% (v/v) heat-inactivated FBS (Hyclone), 50 U penicillin-streptomycin (Invitrogen), 2 mM glutamine, and 50 μM β-mercaptoethanol. Cell culture supernatant was used for ELISA analyses. For flow cytometry, cells were incubated for 5 h with PMA, ionomycin and GolgiStop (BD). […] For ELISA with sera and placenta/decidua extract, IL-6 (Ebioscience), IL-17a (Biolgened), and IL-10 (BD) were measured according to the manufacturer's protocol. […]

For the next series, the system named is IFN-β. As to the kind of experiment: IFN-β ELISA of maternal serum. Particulars: poly(I:C) at E12.5, 3 h, vs PBS. The series is classed as in vivo, mouse. As for the experimental part: as §1
A further series concerns IL-17a mRNA. As to the kind of experiment: Real-time PCR of IL-17a mRNA (placenta/decidua mononuclear cells, fetal brain). In kind it is cell-based, mouse. (In general: Real-time PCR tracks product formation cycle by cycle.)
A short description of series [1]: Properties of the litter (gender ratio, litter size, offspring weight). Particulars: PBS vs poly(I:C), control vs anti-IL-17a treated dams. In kind it is in vivo, mouse.
The test system of a further series is IL-10. As to the kind of experiment: IL-10 ELISA of maternal serum and placenta/decidua extracts. In kind it is in vivo, mouse. Particulars: poly(I:C) at E12.5. As for the experimental part: as §2
The subject of a further series is IL-6. In words: IL-6 ELISA of maternal serum. In kind it is in vivo, mouse. Particulars: poly(I:C) 20 mg/kg i.p. at E12.5, 3 h, vs PBS. The procedure: as §2

Turning to poly(I:C), the “serum TNF-α” value in the series with TNF-α was “strong induction”. In addition, in the series on IL-17a (cells from poly(I:C)-treated dams, ex vivo PMA and ionomycin), the “IL-17a secretion by placenta/decidua-associated mononuclear cells” value is reported as “increased IL-17a secretion; also recorded: enhanced secretion of IL-17a”. Moreover, the “IL-17a secretion by small intestine mononuclear cells” value with IL-17a (cells from poly(I:C)-treated pregnant dams) is reported as “did not exhibit higher levels of IL-17a secretion; also recorded: did not secrete more IL-17a”. The “serum IFN-β” value in the series with IFN-β is “strong induction”. The “IL-17a mRNA in placenta- and decidua-associated mononuclear cells” value in the series with IL-17a mRNA (isolated at E14.5, cultured 24 h) is listed as “strongly up-regulated”. Further, the “IL-17a mRNA in fetal brain at E14.5” value with IL-17a mRNA (regardless of poly(I:C) injection) was “not detected”. Besides, in series [1], the “gender ratios, litter sizes and weights” value is reported as “not affected”. The “IL-10 in serum and placenta/decidua extracts” value in the series with IL-10 was “not affected; also recorded: did not affect”. Moreover, the “serum IL-6” value in the series with IL-6 is recorded as “strong induction”.
